This test has as its system A375-NRAS^Q61K cells. The test can be described thus: CTGlo Cell Viability Assay, A375-NRAS^Q61K (A375.11) cells, 96 hours. In kind it is cell-based, human. The following applies: A375.11 (A375-NRAS^Q61K) cells. The procedure, abridged: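 A375 cells carrying BRAF V600E and NRAS Q61K were seeded at 250 cells/well with a 10-point half-log dose series (max 10 μM final). After 96 h at 37 °C, viability was read as ATP luminescence (CellTiter-Glo), background-subtracted and normalized to DMSO (100%). GI50 from 4-parameter fit; Emax is the lowest % viability.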

[1] abbreviates: Homo sapiens, 96 h, lowest % viability achieved.

On to `CCN(C)S(=O)(=O)Nc1ccc(F)c(Oc2ccc3ncn([C@H]4COC5(CCN(C6CC(c7ccc(NC8CCC(=O)NC8=O)cc7F)C6)CC5)C4)c(=O)c3c2)c1C#N` (single isomer, unassigned) [Compound 62], for which the 50% growth inhibitory concentration (GI50) – broadly, the concentration giving 50% growth inhibition – (Homo sapiens, 96 h) was under 1 µM. Under setting [1], the Emax was under 50%.
`Cn1nc(N2CCC(=O)NC2=O)c2cc(F)c(C3CCC(N4CCC5(CC4)CC(n4cnc6ccc(Oc7c(F)ccc(NS(=O)(=O)N8CC[C@@H](F)C8)c7C#N)cc6c4=O)C5)CC3)cc21` (single isomer, unassigned) [Compound 122] came in with a 50% growth inhibitory concentration (GI50) (Homo sapiens, 96 h) of under 1 µM. This molecule also had an Emax under setting [1] of under 50%.
`CO[C@@H]1CCN(S(=O)(=O)Nc2ccc(F)c(Oc3ccc4ncn([C@H]5COC6(CCN(C7CCC(c8ccc(NC9CCC(=O)NC9=O)cc8F)CC7)CC6)C5)c(=O)c4c3)c2C#N)C1` (single isomer, unassigned) [Compound 109] had a GI50 (Homo sapiens, 96 h) of under 1 µM. In addition, the Emax under setting [1] is under 50%.
In the case of `CCN(C)S(=O)(=O)Nc1ccc(F)c(Oc2ccc3ncn([C@H]4COC5(CCC(N6CCC(c7cc8c(cc7F)c(N7CCC(=O)NC7=O)nn8C)C(F)(F)C6)CC5)C4)c(=O)c3c2)c1C#N` (single isomer, unassigned) [Compound 39], the GI50 was under 1 µM. The “CTGlo A375.11 96 hours Emax” value (lowest % viability achieved) is given as “*** (<=50%)”.
For the setting “Homo sapiens, 96 h”, `CC(C)S(=O)(=O)Nc1ccc(F)c(Oc2ccc3ncn([C@H]4COC5(CCN(C6CC7(C6)CN(c6cc8c(cc6F)c(N6CCC(=O)NC6=O)nn8C)C7)CC5)C4)c(=O)c3c2)c1C#N` [Compound 134, N-[2-cyano-3-[3-[(3R)-8-[2-[3-(2,4-dioxohexahydropyrimidin-1-yl)-5-fluoro-1-methyl-indazol-6-yl]-2-azaspiro[3.3]heptan-6-yl]-1-oxa-8-azaspiro[4.5]decan-3-yl]-4-oxo-quinazolin-6-yl]oxy-4-fluoro-phenyl]propane-2-sulfonamide] registered a 50% growth inhibitory concentration (GI50) of under 1 µM. This molecule gave an Emax under setting [1] of 50 to 90%.
`CCN(C)S(=O)(=O)Nc1ccc(F)c(Oc2ccc3ncc([C@H]4COC5(CCN(C6CC7(C6)CN(c6cc8c(cc6F)c(N6CCC(=O)NC6=O)nn8C)C7)CC5)C4)nc3c2)c1C#N` [Compound 158, (3S)-3-[7-[2-cyano-3-[[ethyl(methyl)sulfamoyl]amino]-6-fluoro-phenoxy]quinoxalin-2-yl]-8-[2-[3-(2,4-dioxohexahydropyrimidin-1-yl)-5-fluoro-1-methyl-indazol-6-yl]-2-azaspiro[3.3]heptan-6-yl]-1-oxa-8-azaspiro[4.5]decane] registered a GI50 (Homo sapiens, 96 h) of under 1 µM. The molecule also showed an Emax under setting [1] of 50 to 90%.
Molecule `CC(C)S(=O)(=O)Nc1ccc(F)c(Oc2ccc3ncn([C@H]4COC5(CCN(C6CCC(c7cc8c(cc7F)c(N7CCC(=O)NC7=O)nn8C)CC6)CC5)C4)c(=O)c3c2)c1C#N` (single isomer, unassigned) [Compound 87] registered a GI50 (Homo sapiens, 96 h) of under 1 µM. Moreover, the Emax under setting [1] was under 50%.
Under “Homo sapiens, 96 h”, `CO[C@H]1CCN(S(=O)(=O)Nc2ccc(F)c(Oc3ccc4ncn([C@H]5COC6(CCN(C7CCC(c8cc9c(cc8F)c(N8CCC(=O)NC8=O)nn9C)CC7)CC6)C5)c(=O)c4c3)c2C#N)C1` (single isomer, unassigned) [Compound 115] came in with a GI50 of under 1 µM. Besides, the Emax under setting [1] is under 50%.
`CN(CCO)S(=O)(=O)Nc1ccc(F)c(Oc2ccc3ncn([C@H]4COC5(CCN(C6CCC(c7cc8c(cc7F)c(N7CCC(=O)NC7=O)nn8C)CC6)CC5)C4)c(=O)c3c2)c1C#N` (single isomer, unassigned) [Compound 73] yielded a concentration for 50% growth inhibition (GI50) (Homo sapiens, 96 h) of 1 to 10 µM. Further, under setting [1], the Emax is under 50%.
Turning to `CCN(C)S(=O)(=O)Nc1ccc(F)c(Oc2ccc3ncc([C@H]4COC5(CCN(C6CCC(c7cc8c(cc7F)c(N7CCC(=O)NC7=O)nn8C)CC6F)CC5)C4)nc3c2)c1C#N` (single isomer, unassigned) [Compound 160], under “Homo sapiens, 96 h”, the GI50 is under 1 µM. The Emax under setting [1] fell in the range of 50 to 90%.
Take `CCN(C)S(=O)(=O)Nc1ccc(F)c(Oc2ccc3ncn(C4CC5(CCN(C6CCC(c7cc8c(cc7F)c(N7CCC(=O)NC7=O)nn8C)CC6F)CC5)C4)c(=O)c3c2)c1F` (single isomer, unassigned) [Compound 184]: the GI50 was in the range of 1 to 10 µM. Further, the Emax under setting [1] was 50 to 90%.
On to `CCN(C)S(=O)(=O)Nc1ccc(F)c(Oc2ccc3ncn([C@H]4COC5(CCN(C6CCC(c7ccc(NC8CCC(=O)NC8=O)cc7F)CC6)CC5)C4)c(=O)c3c2F)c1C#N` (single isomer, unassigned) [Compound 50], for which, where the note is “Homo sapiens, 96 h”, the GI50 was under 1 µM. Also, the Emax under setting [1] was under 50%.
Taken in the same sequence, the figures for `Cn1nc(N2CCC(=O)NC2=O)c2cc(F)c(N3CC4(CC(N5CCC6(CC5)CC(n5cnc7ccc(Oc8c(F)ccc(NS(=O)(=O)N9CC[C@@H](F)C9)c8C#N)cc7c5=O)C6)C4)C3)cc21` [Compound 261, (3R)-N-[2-cyano-3-[3-[7-[2-[3-(2,4-dioxohexahydropyrimidin-1-yl)-5-fluoro-1-methyl-indazol-6-yl]-2-azaspiro[3.3]heptan-6-yl]-7-azaspiro[3.5]nonan-2-yl]-4-oxo-quinazolin-6-yl]oxy-4-fluoro-phenyl]-3-fluoro-pyrrolidine-1-sulfonamide] were under 1 µM and under 50%.
As for `CCN(C)S(=O)(=O)Nc1ccc(F)c(Oc2ccc3ncn([C@H]4COC5(CCC(N6CC7(CN(c8cc9c(cc8F)c(N8CCC(=O)NC8=O)nn9C)C7)C6)CC5)C4)c(=O)c3c2)c1C#N` (stereo partly drawn) [Compound 27, 6-[2-cyano-3-[[ethyl(methyl)sulfamoyl]amino]-6-fluoro-phenoxy]-3-[(3R)-8-[6-[3-(2,4-dioxohexahydropyrimidin-1-yl)-5-fluoro-1-methyl-indazol-6-yl]-2,6-diazaspiro[3.3]heptan-2-yl]-1-oxaspiro[4.5]decan-3-yl]-4-oxo-quinazoline], for the setting “Homo sapiens, 96 h”, the GI50 was under 1 µM. For the same molecule, under setting [1], the Emax is under 50%.
For `CCN(C)S(=O)(=O)Nc1ccc(F)c(Oc2ccc3ncn([C@H]4COC5(CCN(C6CCC(c7cc8c(cc7F)c(N7CCC(=O)NC7=O)nn8C)CC6F)CC5)C4)c(=O)c3c2)c1C#N` (single isomer, unassigned) [Compound 28], the 50% growth inhibitory concentration (GI50) (Homo sapiens, 96 h) is under 1 µM. Moreover, under setting [1], the Emax was under 50%.
For `Cn1nc(N2CCC(=O)NC2=O)c2cc(F)c(N3CC4(CC(N5CCC6(CC5)C[C@@H](n5cnc7ccc(Oc8c(F)ccc(NS(=O)(=O)N9CC[C@@H](F)C9)c8C#N)cc7c5=O)CO6)C4)C3)cc21` [Compound 133, (3R)-N-[2-cyano-3-[3-[(3R)-8-[2-[3-(2,4-dioxohexahydropyrimidin-1-yl)-5-fluoro-1-methyl-indazol-6-yl]-2-azaspiro[3.3]heptan-6-yl]-1-oxa-8-azaspiro[4.5]decan-3-yl]-4-oxo-quinazolin-6-yl]oxy-4-fluoro-phenyl]-3-fluoro-pyrrolidine-1-sulfonamide], the 50% growth inhibitory concentration (GI50) (Homo sapiens, 96 h) was in the range of 1 to 10 µM. Moreover, the Emax under setting [1] was under 50%.
For the molecule `CCN(C)S(=O)(=O)Nc1ccc(F)c(Oc2ccc3ncn([C@H]4COC5(CCN(C6CCC(c7ccc(NC8CCC(=O)NC8=O)cc7F)CC6)CC5)C4)c(=O)c3c2)c1F` (single isomer, unassigned) [Compound 78], for the setting “Homo sapiens, 96 h”, the GI50 is under 1 µM. This molecule also gave an Emax under setting [1] of under 50%.
